Assays:
[1] = test system: pAKT in T47D (PI3Kα H1047R mutant) cells; test: Inhibition of pAKT (alphaLISA Surefire Ultra AKT 1/2/3 pS473) in T47D cells; type: cell-based; settings: Homo sapiens; T47D (PI3Kα H1047R mutant) cells, 24 hr compound incubation, alphaLISA pS473; read-out: T47D (H1047R) pAKT 24 hr (IC50)
Description: The ability of a compound of Formula (I) to inhibit the formation of pAKT was measured using alphaLISA Surefire Ultra AKT 1/2/3 (pS473) Assay Kit (#ALSU-PAKT-B50K) was obtained from Perkin Elmer (Waltham, MA).
To prepare assay plates for pAKT alphaLISA assays, cells were trypsinized, resuspended in fresh media, and viable cells were counted utilizing trypan blue exclusion. Prior to seeding, cells were washed with PBS and resuspended in HBSS (Gibco, #14025092). T47D (12,000/w), SKBR3 (12,000/w), or MKN1 (24,000/w) cells were seeded at 12 μl per well in a solid white flat bottom 384 cell culture plate (Perkin Elmer #6007680).
Immediately after seeding, cells were dosed using an Echo Liquid Handler (Beckman Coulter) with compounds at a 10.4 μm starting concentration and serially diluted (1:4) for a total of 10 concentrations. 14 vehicle (DMSO) and 14 positive control (Alpelisib @3.125 μm) wells were included on each assay plate. Cells were incubated with the compounds (solubilized in DMSO) for approximately 24 hours at 37° C. After 24 hours of treatment, cells were lysed with 3 μl of the 5× lysis buffer (provided and incubated at room temperature for 15 min on a microtiter plate shaker). Once cells were sufficiently lysed, 7.5 μl of the acceptor bead mix (made using the manufacturers recommended dilutions) was added to each well and left on the microtiter plate shaker for 1 min prior to incubating plates at room temperature for 1 hour, in the absence of light. After 1 hour of incubation with the acceptor bead mix, 7.5 μl of the donor bead mix (made using the manufacturers recommended dilutions) was added to each well and left on the microtiter plate shaker for 1 min prior to incubating plates at room temperature overnight in the absence of light. Plates were then imaged the following day using a CLARIOstar microplate reader (BMG Labtech, Germany).
Percent of control values were calculated by subtracting the average signal from the positive control (alpelisib) treated wells from all treated wells (including DMSO control wells) and then divided by the average signal from the vehicle DMSO treated control wells. Percent of vehicle control values were plotted as log(inhibitor) vs. response—Variable slope (four parameters) for curve fitting and IC50 values were determined using XLfit.

[2] = test system: T47D (PI3Kα H1047R mutant) cells; test: Cell viability (CellTiter-Glo 2.0) in T47D cells; type: cell-based; settings: Homo sapiens, T47D, 72 h, approximately 72 hours
Description: This Example illustrates that representative compounds of the invention decrease the viability of cells.
The ability of a compound of Formula (I) to decrease the viability of cells was measured using CellTiter-Glo 2.0 (CTG) Luminescent Cell Viability Assay (#G9241) obtained from Promega (Madison, WI).
To prepare assay plates for viability assays, cells were trypsinized, resuspended in fresh media, and viable cells were counted utilizing trypan blue exclusion. T47D, SKBR3, or MKN1 cells were seeded at 1000 cells in 30 μl per well in a solid white flat bottom 384 cell culture plate (Perkin Elmer #6007680) and incubated at 37° C. overnight.
Assay day 1, cells were dosed using an Echo Liquid Handler (Beckman Coulter) with compounds at a 10 μm starting concentration and serially diluted (1:4) for a total of 10 concentrations. Cells were incubated for approximately 72 hours with the compounds (solubilized in DMSO) at 37° C. After 72 hours of treatment, cell plates were equilibrated to room temperature before adding 15 μl of CTG to each well, plates were then covered in aluminum foil to protect from light, incubated at room temperature for 30 minutes on a microtiter plate shaker, and luminescence readings were collected using a CLARIOstar microplate reader (BMG Labtech, Germany). Percent of vehicle control values were plotted as log(inhibitor) vs. response—Variable slope (four parameters) for curve fitting and IC50 values were determined using XLfit.

COC[C@@]1(F)CCN(c2nc3c([C@@H](C)Nc4ccc(Cl)nc4C(=O)O)cc(C)cc3nc2C#N)C1 (single isomer, unassigned) [Example 164]
IC50 [1]: 2.1 nM | IC50 [2]: 55 nM

COC[C@]1(F)CCN(c2nc3c([C@@H](C)Nc4ccc(Cl)nc4C(=O)O)cc(C)cc3nc2C#N)C1 (single isomer, unassigned) [Example 165]
IC50 [1]: 5.6 nM | IC50 [2]: 97 nM

Cc1cc([C@@H](C)Nc2ccc(Cl)nc2C(=O)O)c2nc(N3CCC(F)(F)[C@@H]3C)c(C#N)nc2c1 (single isomer, unassigned) [Example 169]
IC50 [2]: 108 nM

Cc1cc([C@@H](C)Nc2ccc(Cl)nc2C(=O)O)c2nc(N3CCC(F)(F)[C@H]3C)c(C#N)nc2c1 (single isomer, unassigned) [Example 170]
IC50 [2]: 93.3 nM

CO[C@H]1CN(c2nc3c([C@@H](C)Nc4ccc(Cl)nc4C(=O)O)cc(C)cc3nc2C#N)CC1(F)F (single isomer, unassigned) [Example 171]
IC50 [2]: 178 nM

CO[C@@H]1CN(c2nc3c([C@@H](C)Nc4ccc(Cl)nc4C(=O)O)cc(C)cc3nc2C#N)CC1(F)F (single isomer, unassigned) [Example 172]
IC50 [2]: 170 nM

COC(=O)c1nc(Cl)ccc1N[C@H](C)c1cc(C)cc2nc(C#N)c(N3CC[C@@](C)(F)C3)nc12 (single isomer, unassigned) [Example 180]
IC50 [1]: 1.6 nM | IC50 [2]: 57.8 nM

COC(=O)c1nc(Cl)ccc1N[C@H](C)c1cc(C)cc2nc(C#N)c(N3CC[C@](C)(F)C3)nc12 (single isomer, unassigned) [Example 181]
IC50 [1]: 1.7 nM | IC50 [2]: 44 nM

Cc1cc([C@@H](C)Nc2ccc(Cl)nc2C(=O)O)c2nc(N3CCc4cc(C#N)ccc4C3)c(C#N)nc2c1 [Example 85, (R)-6-chloro-3-((1-(2-cyano-3-(6-cyano-3,4-dihydroisoquinolin-2(1H)-yl)-7-methylquinoxalin-5-yl)ethyl)amino)picolinic acid]
IC50 [1]: 2 nM

Cc1cc([C@@H](C)Nc2nccnc2C(=O)O)c2nc(N3CCC(F)(F)CC3)c(C#N)nc2c1 [Example 113, (R)-3-((1-(2-cyano-3-(4,4-difluoropiperidin-1-yl)-7-methylquinoxalin-5-yl)ethyl)amino)pyrazine-2-carboxylic acid]
IC50 [1]: > 10400 nM | IC50 [2]: 1170 nM

Cc1cc([C@@H](C)Nc2ccc(Cl)nc2C(=O)O)c2nc(N(C)CCC(=O)N(C)C)c(C#N)nc2c1 [Example 114, (R)-6-chloro-3-((1-(2-cyano-3-((3-(dimethylamino)-3-oxopropyl)(methyl)amino)-7-methylquinoxalin-5-yl)ethyl)amino)picolinic acid]
IC50 [1]: 11 nM | IC50 [2]: 190 nM

Cc1cc([C@@H](C)Nc2cccnc2C(=O)O)c2nc(N3CCC(F)(F)CC3)c(C#N)nc2c1 [Example 118, (R)-3-((1-(2-cyano-3-(4,4-difluoropiperidin-1-yl)-7-methylquinoxalin-5-yl)ethyl)amino)picolinic acid]
IC50 [2]: 383 nM

CCOCC1CCN(c2nc3c([C@@H](C)Nc4ccc(Cl)nc4C(=O)O)cc(C)cc3nc2C#N)CC1 [Example 119, (R)-6-chloro-3-((1-(2-cyano-3-(4-(ethoxymethyl)piperidin-1-yl)-7-methylquinoxalin-5-yl)ethyl)amino)picolinic acid]
IC50 [2]: 59.9 nM

Cc1cc([C@@H](C)Nc2cscc2C(=O)O)c2nc(N3CCC(F)(F)CC3)c(C#N)nc2c1 [Example 121, (R)-4-((1-(2-cyano-3-(4,4-difluoropiperidin-1-yl)-7-methylquinoxalin-5-yl)ethyl)amino)thiophene-3-carboxylic acid]
IC50 [2]: 651 nM

Cc1cc([C@@H](C)Nc2ccc(Cl)nc2C(=O)O)c2nc(N3CC4(CCO4)C3)c(C#N)nc2c1 [Example 130, (R)-6-chloro-3-((1-(2-cyano-7-methyl-3-(1-oxa-6-azaspiro[3.3]heptan-6-yl)quinoxalin-5-yl)ethyl)amino)picolinic acid]
IC50 [2]: 65.6 nM

Cc1cc([C@@H](C)Nc2ccc(Cl)nc2C(=O)O)c2nc(N3CC(C(F)(F)F)C3)c(C#N)nc2c1 [Example 131, (R)-6-chloro-3-((1-(2-cyano-7-methyl-3-(3-(trifluoromethyl)azetidin-1-yl)quinoxalin-5-yl)ethyl)amino)picolinic acid]
IC50 [1]: 2.2 nM

COCCNc1nc2c([C@@H](C)Nc3ccc(Cl)nc3C(=O)O)cc(C)cc2nc1C#N [Example 132, (R)-6-chloro-3-((1-(2-cyano-3-((2-methoxyethyl)amino)-7-methylquinoxalin-5-yl)ethyl)amino)picolinic acid]
IC50 [1]: 0.9 nM

Cc1cc([C@@H](C)Nc2ccc(Cl)nc2C(=O)O)c2nc(N3CCN(c4ccc(C(F)(F)F)nc4)CC3)c(C#N)nc2c1 [Example 133, (R)-6-chloro-3-((1-(2-cyano-7-methyl-3-(4-(6-(trifluoromethyl)pyridin-3-yl)piperazin-1-yl)quinoxalin-5-yl)ethyl)amino)picolinic acid]
IC50 [1]: 0.8 nM

Cc1cc([C@@H](C)Nc2ccccc2C(=O)O)c2nc(N3CC4(CCO4)C3)c(C#N)nc2c1 [Example 134, (R)-2-((1-(2-cyano-7-methyl-3-(1-oxa-6-azaspiro[3.3]heptan-6-yl)quinoxalin-5-yl)ethyl)amino)benzoic acid]
IC50 [1]: 10.9 nM

Cc1cc([C@@H](C)Nc2ccc(Cl)nc2C(=O)O)c2nc(NCC3COC3)c(C#N)nc2c1 [Example 135, (R)-6-chloro-3-((1-(2-cyano-7-methyl-3-((oxetan-3-ylmethyl)amino)quinoxalin-5-yl)ethyl)amino)picolinic acid]
IC50 [1]: 19.2 nM

Cc1cc([C@@H](C)Nc2ccc(Cl)nc2C(=O)O)c2nc(N3CCC(n4cccn4)CC3)c(C#N)nc2c1 [Example 136, (R)-3-((1-(3-(4-(1H-pyrazol-1-yl)piperidin-1-yl)-2-cyano-7-methylquinoxalin-5-yl)ethyl)amino)-6-chloropicolinic acid]
IC50 [1]: 0.7 nM

CC(=O)N(C)C1CCN(c2nc3c([C@@H](C)Nc4ccc(Cl)nc4C(=O)O)cc(C)cc3nc2C#N)CC1 [Example 137, (R)-6-chloro-3-((1-(2-cyano-7-methyl-3-(4-(N-methylacetamido)piperidin-1-yl)quinoxalin-5-yl)ethyl)amino)picolinic acid]
IC50 [1]: 1.3 nM

Cc1cc([C@@H](C)Nc2ccc(Cl)nc2C(=O)O)c2nc(N3CCC(n4cc(C)cn4)CC3)c(C#N)nc2c1 [Example 138, (R)-6-chloro-3-((1-(2-cyano-7-methyl-3-(4-(4-methyl-1H-pyrazol-1-yl)piperidin-1-yl)quinoxalin-5-yl)ethyl)amino)picolinic acid]
IC50 [1]: 0.8 nM

Cc1cc([C@@H](C)Nc2ccc(Cl)nc2C(=O)O)c2nc(N3CCC(n4cc(C(F)(F)F)cn4)CC3)c(C#N)nc2c1 [Example 139, (R)-6-chloro-3-((1-(2-cyano-7-methyl-3-(4-(4-(trifluoromethyl)-1H-pyrazol-1-yl)piperidin-1-yl)quinoxalin-5-yl)ethyl)amino)picolinic acid]
IC50 [1]: 2.1 nM

Cc1cc([C@@H](C)Nc2ccc(Cl)nc2C(=O)O)c2nc(N3CCO[C@H](C)C3)c(C#N)nc2c1 [Example 168, 6-chloro-3-(((R)-1-(2-cyano-7-methyl-3-((R)-2-methylmorpholino)quinoxalin-5-yl)ethyl)amino)picolinic acid]
IC50 [2]: 45.8 nM

Cc1cc([C@@H](C)Nc2ccc(Cl)nc2C(=O)O)c2nc(N3CC[C@H](S(C)(=O)=O)C3)c(C#N)nc2c1 [Example 175, 6-chloro-3-(((R)-1-(2-cyano-7-methyl-3-((S)-3-(methylsulfonyl)pyrrolidin-1-yl)quinoxalin-5-yl)ethyl)amino)picolinic acid]
IC50 [2]: 344 nM

From US20240391882A1 (Mirati Therapeutics, Inc., priority 2023, published 2024)
